Results as given in patent US20240425464A1, “Substituted Monohydrazides as Potent Antifungal Agents” (University of Kentucky Research Foundation, priority 2023, published 2024).
Converted amounts (≈) assume the structure as drawn. Where two headings read alike, the source gives them in different places.

What was measured:
[1] = system: Candida duobushaemulonii AR Bank #391; experiment: MIC determination by in vitro antifungal assay; assay type: cell-based
Method: (§1) The antifungal agent amphotericin B (AmB) was purchased from VWR (Radnor PA, USA). AmB was dissolved in DMSO at a final concentration of 5 mg/mL and was stored at −20° C., protected from light. Candida albicans American Type Culture Collection (ATCC) 10231 (strain A), C. albicans ATCC 64124 (B), and C. albicans ATCC MYA-2876 (C) were obtained from Utah State University. C. albicans ATCC 90819 (D), C. albicans ATCC MYA-2310 (E), C. albicans ATCC MYA-1237 (F), C. albicans ATCC MYA-1003 (G), Candida glabrata ATCC 2001 (H), Candida krusei ATCC 6258 (I), Candida parapsilosis ATCC 22019 (J), Cryptococcus neoformans ATCC MYA-895 (M), Aspergillus terreus ATCC MYA-3633 (N), and Aspergillus flavus ATCC MYA-3631 (0) were obtained from the American Type Culture Collection (ATCC; Manassas, VA, USA). Aspergillus nidulans ATCC 38163 (P) was obtained from University of Kentucky. Clinically derived Aspergillus fumigatus NRRL 163 (Q), A. fumigatus NRRL 5109 (R), and A. fumigatus NRRL 6113 (S) were obtained from Northern Regional Research Laboratory (NRRL). Candida auris 384 (K), C. auris 390 (L), and fungal strains 381-400 (including 10 C. auris (AR Bank #381-390), 3 Candida duobushaemulonii (AR Bank #391, AR Bank #392, and AR Bank #394), 2 Candida haemulonii (AR Bank #393 and AR Bank #395), 1 Kodameae ohmeri (AR Bank #396), 1 C. krusei (AR Bank #397), 1 Candida lusitaniae (AR Bank #398), and 2 Saccharomyces cerevisiae strains (AR Bank #399 and AR Bank #400)) were part of a larger fungal library from the AR Bank maintained by the Centers for Disease Control and Prevention (CDC; Atlanta, GA, USA). Filamentous fungi and yeasts were cultivated at 35° C. in RPMI 1640 medium (with L-glutamine, without sodium bicarbonate, Sigma-Aldrich, St. Louis, MO) buffered to a pH of 7.0 with 0.165 M morpholinepropanesulfonic acid (MOPS) buffer (Sigma-Aldrich). For cytotoxicity assays, HepG2 and the mouse macrophage cell line J774A.1 were obtained from University of Kentucky. The human embryonic kidney cell line, HEK-293, was bought from the ATCC. Mammalian cells were grown in Dulbecco's Modified Eagle's Medium (DMEM) (from VWR) with 10% fetal bovine serum (FBS) (from VWR) and 1% Pen/Strep (from ATCC). Cell lines were cultured at 37° C. with 5% CO2 and passaged by trypsinization with 0.05% trypsin: 0.53 mM EDTA (from Sigma-Aldrich).
(§2) From the actively growing yeast culture, 100 µL were then transferred to 900 μL of RPMI 1640 medium and re-adjusted to achieve OD600 of 0.12 (˜1×10^6 CFU/mL). The cell suspension was further diluted to achieve 1:100 in RPMI 1640 medium.

[2] = system: Candida duobushaemulonii AR Bank #392; experiment: MIC determination by in vitro antifungal assay; assay type: cell-based
Method: as §1, §2

[3] = system: Candida duobushaemulonii AR Bank #394; experiment: MIC determination by in vitro antifungal assay; assay type: cell-based
Method: as §1, §2

[4] = system: Candida haemulonii AR Bank #393; experiment: MIC determination by in vitro antifungal assay; assay type: cell-based
Method: as §1, §2

[5] = system: Candida haemulonii AR Bank #395; experiment: MIC determination by in vitro antifungal assay; assay type: cell-based
Method: as §1, §2

[6] = system: Candida krusei AR Bank #397; experiment: MIC determination by in vitro antifungal assay; assay type: cell-based; conditions: Candida strain AR Bank #397
Method: as §1, §2

[7] = system: Candida lusitaniae AR Bank #398; experiment: MIC determination by in vitro antifungal assay; assay type: cell-based; conditions: Candida strain AR Bank #398
Method: as §1, §2

[8] = system: Kodameae ohmeri AR Bank #396; experiment: MIC determination by in vitro antifungal assay; assay type: cell-based; conditions: strain AR Bank #396
Method: as §1, §2

[9] = system: Saccharomyces cerevisiae AR Bank #399; experiment: MIC determination by in vitro antifungal assay; assay type: cell-based
Method: as §1, §2

[10] = system: C. albicans ATCC 10231 (strain A) biofilm formation; experiment: Prevention of biofilm formation assay; assay type: cell-based, Candida albicans
Method: Biofilm prevention assays were set up identically to the ordinary MIC experiment, where compounds were diluted, and the fungi added. After overnight growth, the plates were washed as in the biofilm disruption assay and stained and measured in the same fashion.
A large amount of fungal cells were exposed to the monohydrazides at time 0 h to evaluate the effect of these compounds in the prevention of Candida biofilm formation (FIG. 5B). […] Although some of these monohydrazides were able to prevent biofilm formation, none of these compounds had any effect in terms of the disruption of already pre-formed biofilms (FIG. 5A).

[11] = system: panel of ten C. auris strains (AR Bank #381-390); experiment: MIC determination, summary over the C. auris panel; assay type: cell-based, Candida auris; conditions: Candidozyma auris
Method: as §1, §2

[12] = system: ten other fungal strains (AR Bank #391-400); experiment: MIC determination, summary over ten additional fungal strains; assay type: cell-based; conditions: read-out: MIC range
Method: as §1, §2

[13] = Candidozyma duobushaemuli, read-out: MIC
[14] = Candidozyma haemuli, read-out: MIC
[15] = Pichia kudriavzevii, read-out: MIC
[16] = Clavispora lusitaniae, read-out: MIC
[17] = against all ten C. auris strains tested (AR Bank #381-390)

Compound	MIC [1, 13]	MIC [2, 13]	MIC [3, 13]	MIC [4, 14]	MIC [5, 14]	MIC [6, 15]	MIC [7, 16]	MIC ([8]; read-out: MIC)	MIC ([9]; read-out: MIC)	MIC [11, 17]	MIC [12]	also measured
O=C(NNc1cc(F)ccc1F)c1ccccn1 [Compound 2h]	0.49 µg/mL (≈ 1.97 µM)	0.24 µg/mL (≈ 0.963 µM)	0.24 µg/mL (≈ 0.963 µM)	0.98 µg/mL (≈ 3.93 µM)	0.24 µg/mL (≈ 0.963 µM)	0.24 µg/mL (≈ 0.963 µM)	0.49 µg/mL (≈ 1.97 µM)	0.12 µg/mL (≈ 0.482 µM)	1.95 µg/mL (≈ 7.82 µM)	0.06 to 1.95 µg/mL (≈ 0.241 to 7.82 µM)	0.06 to 1.95 µg/mL (≈ 0.241 to 7.82 µM)	prevention of biofilm formation [10]: not capable of preventing
O=C(NNc1ccc(F)cc1F)c1ccccn1 [Compound 2g]	0.12 µg/mL (≈ 0.482 µM)	0.49 µg/mL (≈ 1.97 µM)	3.9 µg/mL (≈ 15.6 µM)	0.49 µg/mL (≈ 1.97 µM)	0.24 µg/mL (≈ 0.963 µM)	≤ 0.06 µg/mL	1.95 µg/mL (≈ 7.82 µM)	0.98 µg/mL (≈ 3.93 µM)	0.49 µg/mL (≈ 1.97 µM)	0.06 to 1.95 µg/mL (≈ 0.241 to 7.82 µM)	0.06 to 7.8 µg/mL (≈ 0.241 to 31.3 µM)	prevention of biofilm formation [10]: not capable of preventing
O=C(NNc1ccc(Cl)cc1)c1cnccn1 [Compound 9e]												MIC [1]: 1.95 μg/mL^−1; MIC [2]: 1.95 μg/mL^−1; MIC [3]: 1.95 μg/mL^−1; MIC [4]: 1.95 μg/mL^−1; MIC [5]: 3.9 μg/mL^−1; MIC [6]: 1.9 μg/mL^−1; MIC [7]: 3.9 μg/mL^−1; MIC [8]: 1.95 μg/mL^−1; MIC [9]: 3.9 μg/mL^−1
O=C(NNc1ccc(F)cc1F)c1ncc(F)cc1F [Compound 7g]										0.12 to 7.8 µg/mL (≈ 0.421 to 27.3 µM)		
O=C(NNc1ccc(F)cc1)c1cccc(F)n1 [Compound 5d]										0.06 to 1.95 µg/mL (≈ 0.241 to 7.82 µM)		
O=C(NNc1ccc(F)cc1)c1cccc(Br)n1 [Compound 6d]										0.12 to 7.8 µg/mL (≈ 0.387 to 25.2 µM)		
O=C(NNc1ccc(F)cc1)c1ncc(F)cc1F [Compound 7d]										0.12 to 7.8 µg/mL (≈ 0.449 to 29.2 µM)		
O=C(NNc1ccc(F)cc1)c1ccc(Br)cn1 [Compound 4d]										0.12 to 7.8 µg/mL (≈ 0.387 to 25.2 µM)		
O=C(NNc1ccc(F)cc1F)c1ccc(F)cn1 [Compound 3g]										0.12 to 7.8 µg/mL (≈ 0.449 to 29.2 µM)		
O=C(NNc1ccc(F)cc1)c1nc(F)ccc1F [Compound 8d]										0.06 to 1.95 µg/mL (≈ 0.225 to 7.3 µM)		
COc1ccc(NNC(=O)c2cnccn2)cc1 [Compound 9f]	0.49 µg/mL (≈ 2.01 µM)	0.49 µg/mL (≈ 2.01 µM)	0.49 µg/mL (≈ 2.01 µM)	0.24 µg/mL (≈ 0.983 µM)	0.49 µg/mL (≈ 2.01 µM)	0.49 µg/mL (≈ 2.01 µM)	0.98 µg/mL (≈ 4.01 µM)	0.98 µg/mL (≈ 4.01 µM)	0.98 µg/mL (≈ 4.01 µM)	0.06 to 1.95 µg/mL (≈ 0.246 to 7.98 µM)	0.06 to 1.95 µg/mL (≈ 0.246 to 7.98 µM)	
O=C(NNc1cccc(Cl)c1)c1cnccn1 [Compound 9b]	0.24 µg/mL (≈ 0.965 µM)	0.12 µg/mL (≈ 0.483 µM)	0.12 µg/mL (≈ 0.483 µM)	0.24 µg/mL (≈ 0.965 µM)	0.24 µg/mL (≈ 0.965 µM)	0.12 µg/mL (≈ 0.483 µM)	0.49 µg/mL (≈ 1.97 µM)	0.12 µg/mL (≈ 0.483 µM)	0.98 µg/mL (≈ 3.94 µM)	0.06 to 1.95 µg/mL (≈ 0.241 to 7.84 µM)	0.06 to 1.95 µg/mL (≈ 0.241 to 7.84 µM)	
O=C(NNc1ccc(F)cc1F)c1nc(F)ccc1F [Compound 8g]												MIC ([11]; all C. auris strains tested with the exception of AR Bank #390): 0.49 to 1.95 µg/mL (≈ 1.72 to 6.84 µM)
